Experimental findings from patent US6716858B1, “Methods for inhibiting diabetic complications” (Kansas University Medical Center, priority 1995, dated 2004) are described below.

Experiment [1] has as its system AGE formation during uninterrupted glycation of ribonuclease A (RNase A) by ribose. The experiment is described as follows: Uninterrupted ribose glycation assay, RNase. Type of experiment: biochemical, bovine. To be noted: continuous 0.05 M ribose, 6 weeks, inhibitors 0.5-50 mM. The protocol: (§1) ELISA detection of AGE products. The general method of Engvall (1981, Methods Enzymol. 70:419-439) was used to perform the ELISA. Typically, glycated protein samples were diluted to approximately 1.5 ug/ml in 0.1 M sodium carbonate buffer of pH 9.5 to 9.7. The protein was coated overnight at room temperature onto 96-well polystyrene plates by pippetting 200 ul of the protein solution in each well (0.3 ug/well). After coating, the protein was washed from the wells with a saline solution containing 0.05% Tween-20. The wells were then blocked with 200 ul of 1% casein in carbonate buffer for 2 h at 37° C. followed by washing. Rabbit anti-AGE antibodies were diluted at a titer of about 1:350 in incubation buffer, and incubated for 1 h at 37° C., followed by washing. In order to minimize background readings, antibodies R479 used to detect glycated RNase were raised against glycated BSA, and antibodies R618 used to detect glycated BSA and glycated Hb were raised against glycated RNase. An alkaline phosphatase-conjugated antibody to rabbit IgG was then added as the secondary antibody at a titer of 1:2000 or 1:2500 (depending on lot) and incubated for 1 h at 37° C., followed by washing. The p-nitrophenylphosphate substrate solution was then added (200 ul/well) to the plates, with the absorbance of the released p-nitrophenolate being monitored at 410 nm with a Dynatech MR 4000 microplate reader.
Uninterrupted ribose glycation assays Bovine serum albumin, ribonuclease A, and human hemoglobin were incubated with ribose at 37° C. in 0.4 M sodium phosphate buffer of pH 7.5 containing 0.02% sodium azide. The protein (10 mg/ml or 1 mg/ml), 0.05 M ribose, and prospective inhibitors (at 0.5, 3, 15 and 50 mM) were introduced into the incubation mixture simultaneously. Solutions were kept in the dark in capped tubes. Aliquots were taken and immediately frozen until analyzed by ELISA at the conclusion of the reaction. The incubations were for 3 weeks (Hb) or 6 weeks (RNase, BSA). Glycation reactions were monitored for constant pH throughout the duration of the experiments.
The inhibitory effects of vitamin B1 and B6 derivatives on the kinetics of antigenic AGE formation were evaluated by polyclonal antibodies specific for AGEs. Initial inhibition studies were carried out on the glycation of bovine ribonuclease A (RNase) in the continuous presence of 0.05 M ribose, which is the concentration of ribose where the rate of AGE formation is near maximal.

In experiment [2] the test system is AGE formation in human methemoglobin (Hb). The experiment is described as follows: Uninterrupted glycation of human methemoglobin with glucose, anti-AGE ELISA. Type of experiment: biochemical. The following applies: Hb 1 mg/ml, 1.0 M glucose, 3 weeks; inhibitors 0.5, 3, 15 and 50 mM. As for the experimental part:
(§2) Uninterrupted Glycation with Glucose Bovine serum albumin, ribonuclease A, and human hemoglobin were incubated with glucose at 37° C. in 0.4 M sodium phosphate buffer of pH 7.5 containing 0.02% sodium azide. The protein, glucose (at 1.0 M), and prospective inhibitors (at 0.5, 3, 15 and 50 mM) were introduced into the incubation mixture simultaneously. Solutions were kept in the dark in capped tubes. Aliquots were taken and immediately frozen until analyzed by ELISA at the conclusion of the reaction. The incubations were for 3 weeks (Hb) or 6 weeks (RNase, BSA).
as §1
(§3) Aliquots were assayed by ELISA using R618 anti-AGE antibodies.
as §3

In experiment [3] the test system is post-Amadori AGE formation, RNase Amadori intermediate. The experiment is described as follows: Interrupted (post-Amadori) ribose glycation assay, RNase. Type of experiment: biochemical, bovine. The following applies: RNase. The protocol: as §1
Glycation Modifications Modification with ribose or glucose was generally done at 37° C. in 0.4 M phosphate buffer of pH 7.5 containing 0.02% sodium azide. The high buffer concentration was always used with 0.5 M ribose modifications. The solutions were kept in capped tubes and opened only to remove timed aliquots that were immediately frozen for later carrying out the various analyses. “Interrupted glycation” experiments were carried out by first incubating protein with the ribose at 37° C. for 8 or 24 h, followed by immediate and extensive dialysis against frequent cold buffer changes at 4° C. The samples were then reincubated by quickly warming to 37° C. in the absence of external ribose. Aliquots were taken and frozen at various intervals for later analysis. Due to the low molecular weight of RNase, protein concentrations were remeasured after dialysis even when low molecular weight cut-off dialysis tubing was used. An alternative procedure was also devised (see below) in which interruption was achieved by simple 100-fold dilution from reaction mixtures containing 0.5 M ribose. Protein concentrations were estimated from UV spectra. The difference in molar extinction between the peak (278 nm) and trough (250 nm) was used for RNase concentration determinations in order to compensate for the general increase in UV absorbance that accompanies glycation. Time-dependent UV-difference spectral studies were carried out to characterize the glycation contributions of the UV spectrum. […]
Glycation was first carried out by incubating protein (10 mg/ml) with 0.5 M ribose at 37° C. in 0.4 M phosphate buffer at pH 7.5 containing 0.2% sodium azide for 24 h in the absence of inhibitors. Glycation was then interrupted to remove excess and reversibly bound (Schiff base) sugar by extensive dialysis against frequent cold buffer changes at 4° C.

Experiment [4] deals with AGE formation in bovine serum albumin (BSA). The experiment is described as follows: Uninterrupted glycation of BSA with glucose, anti-AGE ELISA. In kind it is biochemical. To be noted: BSA 10 mg/ml, 1.0 M glucose, pH 7.5, 37° C., 6 weeks; inhibitors 3, 15 and 50 mM. As for the experimental part:
as §2, §1
FIGS. 1 A-D are graphs which show the effect of vitamin B6 derivatives on post-Amadori AGE formation in bovine serum albumin glycated with glucose. BSA (10 mg/ml) was incubated with 1.0 M glucose in the presence and absence of the various indicated derivative in 0.4 M sodium phosphate buffer of pH 7.5 at 37° C. for 6 weeks. Aliquots were assayed by ELISA using R618 anti-AGE antibodies. Concentrations of the inhibitors were 3, 15 and 50 mM. Inhibitors used in FIGS. (1A) Pyridoxamine (PM); (1B) pyridoxal phosphate (PLP); (1C) pyridoxal (PL); (1D) pyridoxine (PN).
FIGS. 2A-D are graphs which show the effect of vitamin B1 derivatives and aminoguanidine (AG) on AGE formation in bovine serum albumin. BSA (10 mg/ml) was incubated with 1.0 M glucose in the presence and absence of the various indicated derivative in 0.4 M sodium phosphate buffer of pH 7.5 at 37° C. for 6 weeks. Aliquots were assayed by ELISA using R618 anti-AGE antibodies. Concentrations of the inhibitors were 3, 15 and 50 mM. Inhibitors used in FIGS. (2A) Thiamine pyrophosphate (TPP); (2B) thiamine monophosphate (TP); (2C) thiamine (T); (2D) aminoguanidine (AG).

The mark [5] stands for this setting: 24 h in 0.5 M ribose, then free ribose removed, 37° C.

SMILES strings stand for the structures.

On to `N=C(N)NN` [aminoguanidine, reference compound], for which, in experiment [1], the “inhibition of overall kinetics of AGE formation from ribose” value (from here on “inhibition … from ribose”) is “decreased the rate of AGE formation on RNase, but did not reduce the final level of AGE formed”. For the same compound, the “inhibition of antigenic AGE formation (ELISA)” value (shortened to “inhibition … (ELISA)”) in experiment [2] is “only inhibited the rate of AGE formation, and not the final levels of AGE formed”; in experiment [4], “produced some inhibition of AGE formation in BSA, but less so than the above compounds”. For the same compound, the “inhibition of post-Amadori AGE formation” value in experiment [3] (setting [5]) is listed as “modest effects on blocking the formation of antigenic AGEs in RNase”; in experiment [3] (50 mM inhibitor), “less than 15%”.

Regarding `Cc1ncc(CO)c(CN)c1O` [pyridoxamine], the “inhibition … from ribose” value in experiment [1] is “best inhibitor of the “final” levels of AGE formed on RNase”. The “inhibition … (ELISA)” value in experiment [2] is recorded as “the most effective inhibitors in each of their respective families”; in experiment [4], “strongly suppressed antigenic AGE formation at even the lowest concentrations tested”. Also, the “inhibition of post-Amadori AGE formation” value in experiment [3] (setting [5]) was “nearly complete inhibition of AGE formation with RNase at 15 mM and 50 mM”.

`Cc1ncc(C[n+]2csc(CCO[P@](=O)(O)OP(=O)(O)O)c2C)c(N)n1` [thiamine pyrophosphate]: the “inhibition … from ribose” value in experiment [1] is “both the rate of AGE formation and the final levels of AGE produced at the plateau appeared diminished”. The “inhibition … (ELISA)” value in experiment [2] was “the most effective inhibitors in each of their respective families”; in experiment [4], “effective at all concentrations tested”. In experiment [3] (setting [5]), the “inhibition of post-Amadori AGE formation” value was “inhibited AGE formation more effectively than the other B1 derivatives”.
